By EC50 is commonly meant the concentration giving half of the maximal effect.

In publication PMC9867526, “Drug Metabolism of Hepatocyte-like Organoids and Their Applicability in In Vitro Toxicity Testing” (Molecules, 2023) one finds EC50 and cytotoxicity data, which are given here for 5 compounds.

One data set concerns HL-ICOs. As to the kind of experiment: Cytotoxicity (CellTiter-Glo ATP viability) in hepatocyte-like intrahepatic cholangiocyte organoids, 48 h exposure. It is filed as cell-based, human. On the procedure:
The cell suspension was cultured in MatrigelTM (Corning, New York, NY, USA) droplets in expansion medium (EM) until organoids were formed, as previously described. EM consisted of Advanced DMEM/F12 (Life Technologies) supplemented with 1% (v/v) penicillin-streptomycin (Life Technologies), 1% (v/v) GlutaMax (Life Technologies), 10 mM HEPES (4-(2-hydroxyethyl)-1-piperazineethanesulfonic acid, Life Technologies), 2% (v/v) B27 supplement without vitamin A (Invitrogen, Carlsbad, CA, USA), 1% (v/v) N2 supplement (Invitrogen), 10 mM nicotinamide (Sigma-Aldrich, St Louis, MO, USA), 1.25 mM N-acetylcysteine (Sigma-Aldrich), 10% (v/v) R-spondin-1 conditioned medium (the Rspo1-Fc-expressing cell line was a kind gift from Calvin J. Kuo), 10 μM forskolin (Sigma-Aldrich), 5 μM A83-01 (transforming growth factor beta inhibitor; Tocris Bioscience, Bristol, UK), 50 ng/mL EGF (Invitrogen), 25 ng/mL HGF (Peprotech, Rocky Hill, NJ, USA), 0.1 μg/mL FGF10 (Peprotech) and 10 nM recombinant human ([…])-gastrin I (Sigma-Aldrich). Medium was changed twice a week. Passaging occurred every 7-10 days at ratios ranging between 1:2 and 1:4. All cultures were kept in a humidified atmosphere of 95% air and 5% CO2 at 37 °C. Organoids were primed for differentiation with BMP7 (25 ng/mL, Peprotech) through spiking EM 3 days before shifting to hepatic differentiation medium (DM). DM consisted of EM without R-spondin-1, FGF10, and nicotinamide, supplemented with 100 ng/mL FGF19 (Peprotech), 500 nM A83-01 (Tocris Bioscience), 10 μM DAPT (Selleckchem, Munich, Germany), 25 ng/mL BMP-7 (Peprotech), and […] (Sigma-Aldrich). Organoids were kept on DM for up to 12 days. For exposure experiments, differentiation assay medium was prepared to reduce antioxidants in the medium. This assay medium consisted of DMEM GlutaMAX instead of DMEM-F12 medium complemented with the same components as differentiation medium excluding GlutaMAX, B27, and NAC. In 96-well format (cytotoxicity assay), 12,000 cells in 9 μL Matrigel per well were plated at the start of differentiation, and exposure was started at day 10 of differentiation for 48 h. In 24-well format (CYP activity assay), cells were densely plated in a fresh Matrigel droplet (50 μL) upon the start of differentiation, and cells were exposed to the CYP substrate cocktail on day 12 of differentiation. […] Cells plated in 96-well plates were exposed to a concentration range (six concentrations in 2x dilution) of five known hepatotoxic compounds for 48 h (single dose). Acetaminophen (CAS 103-90-2; 30 mM) and valproic acid (CAS 1069-66-5; 10 mM) were directly dissolved in assay medium (previously described for each hepatic cell model). […] For the latter, vehicle control (0.5% (v/v) DMSO) was used in the exposure experiments. All chemicals were obtained from Sigma-Aldrich, unless stated otherwise. […] The viability of exposed cells was determined by cellular ATP levels using the CellTiter-Glo Luminescent Cell Viability Assay (Promega, Madison, WI, USA). The CellTiter Glo reagent was prepared according to the manufacturer's instructions. Briefly, the culture plate was equilibrated at room temperature for 30 min. Medium was removed from the plate, after which phosphate-buffered saline (PBS) and the CellTiter Glo reagent were added to each well in equal volumes. The plate was mixed for 2 min on an orbital shaker and incubated for an additional 10 min at room temperature. Luminescence was measured on the TriStar2 (Berthold Technologies, Bad Wildbad, Germany), and samples were normalized to (vehicle) control.
In general terms: Cellular ATP, detected with luciferase, serves as a proxy for viable cell number.

Another data set relates to PHH. As to the kind of experiment: Cytotoxicity (CellTiter-Glo ATP viability) in primary human hepatocytes, 48 h exposure. Format: cell-based. To be noted: Hepatocyte. On the procedure:
LiverPool cryoplateable hepatocytes (pool of 10 donors, mixed gender; BioIVT, Hicksville, NY, USA) were cultured in a collagen I (Sigma-Aldrich, St Louis, MO, USA) sandwich in INVITROGRO CP medium (BioIVT) complemented with the TORPEDO Antibiotic mix (BioIVT). Seeding density was 49,000 cells/well in a 96-well plate (cytotoxicity assay) or 350,000 cells/well in a 24-well plate (CYP activity assay), according to the manufacturer’s instructions. Exposure of the hepatocytes was started 48 h after seeding. For exposure assays, INVITROGRO HI medium (BioIVT) was used, as recommended. Cells plated in 96-well plates were exposed to a concentration range (six concentrations in 2x dilution) of five known hepatotoxic compounds for 48 h (single dose). Acetaminophen (CAS 103-90-2; 30 mM) and valproic acid (CAS 1069-66-5; 10 mM) were directly dissolved in assay medium (previously described for each hepatic cell model). […] For the latter, vehicle control (0.5% (v/v) DMSO) was used in the exposure experiments. All chemicals were obtained from Sigma-Aldrich, unless stated otherwise. […] The viability of exposed cells was determined by cellular ATP levels using the CellTiter-Glo Luminescent Cell Viability Assay (Promega, Madison, WI, USA). The CellTiter Glo reagent was prepared according to the manufacturer’s instructions. Briefly, the culture plate was equilibrated at room temperature for 30 min. Medium was removed from the plate, after which phosphate-buffered saline (PBS) and the CellTiter Glo reagent were added to each well in equal volumes. The plate was mixed for 2 min on an orbital shaker and incubated for an additional 10 min at room temperature. Luminescence was measured on the TriStar2 (Berthold Technologies, Bad Wildbad, Germany), and samples were normalized to (vehicle) control.

The next data set deals with HepaRG. The data set is described as follows: Cytotoxicity (CellTiter-Glo ATP viability) in HepaRG cells, 48 h exposure. Format: cell-based. To be noted: Homo sapiens. On the procedure: Undifferentiated HepaRG cells were purchased from Biopredic International (Saint Grégoire, France). Cells were cultured (passage number between p18 and p28) in T75 flasks in culture medium consisting of William’s E medium (without phenol red; Thermo Fisher Scientific, Waltham, MA, USA) supplemented with 1% (v/v) penicillin-streptomycin (Thermo Fisher Scientific), 10% (v/v) fetal bovine serum (FBS; Thermo Fisher Scientific), 50 µM hydrocortisone 21-hemisuccinate (Sigma-Aldrich, St Louis, MO, USA), 2 mM GlutaMax (Thermo Fisher Scientific) and 5 µg/mL insulin (Sigma-Aldrich). For differentiation, cells were cultured for 7–10 days and upon confluence, the monolayer was switched to differentiation medium (culture medium supplemented with 1% (v/v) DMSO). After differentiation, cells were trypsinized using TrypLE (Thermo Fisher Scientific) and seeded at a density of 65,000 cells/well in a 96-well plate (cytotoxicity assay) or 130,000 cells/well in a 24-well plate (CYP activity assay). Cells were allowed to attach for 24 to 48 h. Before exposure, cells were washed with assay medium (culture medium without FBS), after which exposure was started. Cells plated in 96-well plates were exposed to a concentration range (six concentrations in 2x dilution) of five known hepatotoxic compounds for 48 h (single dose). Acetaminophen (CAS 103-90-2; 30 mM) and valproic acid (CAS 1069-66-5; 10 mM) were directly dissolved in assay medium (previously described for each hepatic cell model). […] For the latter, vehicle control (0.5% (v/v) DMSO) was used in the exposure experiments. All chemicals were obtained from Sigma-Aldrich, unless stated otherwise. […] The viability of exposed cells was determined by cellular ATP levels using the CellTiter-Glo Luminescent Cell Viability Assay (Promega, Madison, WI, USA). The CellTiter Glo reagent was prepared according to the manufacturer’s instructions. Briefly, the culture plate was equilibrated at room temperature for 30 min. Medium was removed from the plate, after which phosphate-buffered saline (PBS) and the CellTiter Glo reagent were added to each well in equal volumes. The plate was mixed for 2 min on an orbital shaker and incubated for an additional 10 min at room temperature. Luminescence was measured on the TriStar2 (Berthold Technologies, Bad Wildbad, Germany), and samples were normalized to (vehicle) control.

[1] abbreviates: Homo sapiens, 48 h, HL-ICOs, range over the four ICO donors.
Where [2] appears, read: Homo sapiens, HL-ICOs differentiation day 12, ICO donor in first HL-ICO column, 48 h single dose, cell viability (ATP).
The mark [3] stands for this setting: Homo sapiens, HL-ICOs differentiation day 12, ICO donor in fourth HL-ICO column, 48 h single dose, cell viability (ATP).
Where [4] appears, read: Homo sapiens, HL-ICOs differentiation day 12, ICO donor in second HL-ICO column, 48 h single dose, cell viability (ATP).
[5] abbreviates: Homo sapiens, HL-ICOs differentiation day 12, ICO donor in third HL-ICO column, 48 h single dose, cell viability (ATP).
Setting [6] is: PHH (pool of 10 donors, collagen I sandwich), 48 h single dose, cell viability (ATP).
Where [7] appears, read: 48 h single dose, median of three independent experiments, minimum and maximum EC50 within brackets.
Setting [8] is: range of three independent experiments.
[9] abbreviates: HL-ICOs, range over the four ICO donors, 48 h.

Molecules are shown by their SMILES. Bounds are passed on as bounds.

On to `CCCC(CCC)C(=O)O` [Valproic Acid], for which the EC50 in the data set with HL-ICOs (setting [1]) was over 10000 µM; with HL-ICOs (setting [2]) it was over 10000 µM; with HL-ICOs (setting [3]), over 10000 µM; in the data set with HL-ICOs (setting [4]), over 10000 µM; in the data set with HL-ICOs (setting [5]) it was over 10000 µM; in the data set on PHH (PHH) it was 9880 µM. Besides, the figures for the EC50 in the data set with PHH (setting [6]), in the data set on HepaRG (setting [7]) and in the data set with HepaRG (setting [8]) were 9880 µM, 4580 µM and 4170 to 6070 µM, respectively.
For the compound `O=C(O)Cc1ccccc1Nc1c(Cl)cccc1Cl` [Diclofenac], the EC50 in the data set with HL-ICOs (Homo sapiens, 48 h, HL-ICOs, the other three ICO donors, higher than highest tested concentration) is over 500 µM; in the data set on HL-ICOs (setting [2]), over 500 µM; in the data set on HL-ICOs (setting [4]), over 500 µM; with HL-ICOs (setting [5]), over 500 µM; in the data set on PHH (setting [6]), 421 µM; in the data set on HepaRG (setting [7]), 352 µM. The compound also had an EC50 with HepaRG (setting [8]) of 272 to 435 µM.
Consider `CC(=O)Nc1ccc(O)cc1` [Acetaminophen], for which the EC50 in the data set on HL-ICOs (setting [9]) is 24000 to 24900 µM; in the data set on HL-ICOs (setting [1]) it was 24000 to 26800 µM; with HL-ICOs (setting [2]), 24900 µM; in the data set with HL-ICOs (setting [3]), 24000 µM; with HL-ICOs (setting [4]), 24600 µM; with HL-ICOs (setting [5]) it was 26800 µM. Besides, the EC50 in the data set on PHH (PHH) is 4190 µM; in the data set on PHH (setting [6]), 4190 µM; in the data set on HepaRG (setting [7]) it was 4040 µM; with HepaRG (setting [8]), 3460 to 6040 µM.
For the compound `Cc1c(C)c2c(c(C)c1O)CCC(C)(COc1ccc(CC3SC(=O)NC3=O)cc1)O2` (stereo not shown) [Troglitazone], the EC50 with HL-ICOs (setting [9]) is 23.1 to 90.8 µM; with HL-ICOs (setting [1]), 23.1 to 90.8 µM; with HL-ICOs (setting [2]), 42.8 µM; in the data set with HL-ICOs (setting [3]), 24.4 µM; with HL-ICOs (setting [4]), 90.8 µM; in the data set with HL-ICOs (setting [5]), 23.1 µM. Also, the EC50 is 57.1 µM in the data set on PHH (setting [6]), 45.1 µM with HepaRG (setting [7]) and 14.9 to 45.2 µM in the data set with HepaRG (setting [8]).
In the case of `C1CCC(C(CC2CCCCN2)C2CCCCC2)CC1` (stereo not shown) [Perhexiline], the cytotoxicity entry in the data set with HL-ICOs (HL-ICOs, three ICO donors, up to 31.5 µM, 48 h) was “no cytotoxicity”. In addition, the EC50 in the data set with HL-ICOs (setting [2]) is over 31.5 µM; in the data set with HL-ICOs (setting [3]) it was over 31.5 µM; in the data set with HL-ICOs (setting [4]) it was 9.68 µM; with HL-ICOs (setting [5]) it was over 31.5 µM; in the data set with PHH (setting [6]), 8.07 µM; in the data set with HepaRG (setting [7]), 26 µM. In the data set with HepaRG (setting [8]), this compound returned an EC50 of 10.5 to 26.4 µM.
